#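 Grown in 96-well plates, cells were treated for 48 hours with each compound at five concentrations. Insufficient inhibition: endpoint recorded as highest concentration tested. The concentration for 50% growth inhibition is given as GI50.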 Activity calls are given as the source filed them. Cut-off read from the data, not from the text of the source: active = GI50 up to about 1.1 µM and inactive = higher.
# Key:
# Assay in all cases: NCI anticancer screen, dose series, 48 h
# [1] = system: SF-539
# [2] = system: DMS-114
# [3] = system: RXF 393
# [4] = system: SNB-19
# [5] = system: SF-295
# [6] = system: K562
# [7] = system: SW-620
# [8] = system: COLO 205
# [9] = system: ACHN
# [10] = system: 786-0
# [11] = system: NCI-H23
# [12] = system: KM12
# [13] = system: SN12C
# [14] = system: OVCAR-8
# [15] = system: UO-31
# [16] = system: HOP-92
# [17] = system: DMS-273
# [18] = system: HT-29
# [19] = system: NCI-H226
# [20] = system: UACC-257
# [21] = system: LXFL 529
# [22] = system: RPMI-8226
# [23] = system: KM-20L2
# [24] = system: SK-MEL-2
# [25] = system: SK-MEL-28
# [26] = system: EKVX
# [27] = system: HCT-116
# [28] = system: MOLT-4
# [29] = system: SNB-78
# [30] = system: HCT-15
# [31] = system: HCC 2998
# [32] = system: A549
# [33] = system: OVCAR-5
# [34] = system: U-251
# [35] = system: TK-10
# [36] = system: Malme-3M
# [37] = system: SR
# [38] = system: SF-268
# [39] = system: OVCAR-4
# [40] = system: LOX IMVI
# [41] = system: NCI-H460
# [42] = system: DLD-1
# [43] = system: A498
# [44] = system: OVCAR-3
# [45] = system: UACC-62
# [46] = system: M14
# [47] = system: CAKI-1
# [48] = system: CCRF-CEM
# [49] = system: SNB-75
# [50] = system: SK-MEL-5
# [51] = system: SK-OV-3
# [52] = system: M19-MEL
# [53] = system: XF498
# [54] = system: IGROV-1
# [55] = system: HOP-62
smiles,measurement,setting,value
COC(=O)c1cc(Cl)ccc1NC(=O)C1CCCCC1,GI50,[1],> 100 µM (inactive)
same,GI50,[2],> 100 µM (inactive)
same,GI50,[3],33.1 µM (inactive)
same,GI50,[4],> 100 µM (inactive)
same,GI50,[5],> 100 µM (inactive)
same,GI50,[6],> 100 µM (inactive)
same,GI50,[7],> 100 µM (inactive)
same,GI50,[8],> 100 µM (inactive)
same,GI50,[9],> 100 µM (inactive)
same,GI50,[10],> 100 µM (inactive)
same,GI50,[11],> 100 µM (inactive)
same,GI50,[12],> 100 µM (inactive)
same,GI50,[13],74.6 µM (inactive)
same,GI50,[14],> 100 µM (inactive)
same,GI50,[15],17.6 µM (inactive)
same,GI50,[16],22.8 µM (inactive)
same,GI50,[17],> 100 µM (inactive)
same,GI50,[18],> 100 µM (inactive)
same,GI50,[19],> 100 µM (inactive)
same,GI50,[20],> 100 µM (inactive)
same,GI50,[21],> 100 µM (inactive)
same,GI50,[22],> 100 µM (inactive)
same,GI50,[23],> 100 µM (inactive)
same,GI50,[24],> 100 µM (inactive)
same,GI50,[25],> 100 µM (inactive)
same,GI50,[26],> 100 µM (inactive)
same,GI50,[27],> 100 µM (inactive)
same,GI50,[28],23.2 µM (inactive)
same,GI50,[29],> 100 µM (inactive)
same,GI50,[30],> 100 µM
same,GI50,[31],> 100 µM (inactive)
same,GI50,[32],> 100 µM (inactive)
same,GI50,[33],> 100 µM (inactive)
same,GI50,[34],> 100 µM (inactive)
same,GI50,[35],92.7 µM (inactive)
same,GI50,[36],> 100 µM (inactive)
same,GI50,[37],> 100 µM (inactive)
same,GI50,[38],48.1 µM (inactive)
Cc1cc(Cl)ccc1NC1=NC(=O)C(CC(=O)Nc2ccc([N+](=O)[O-])cc2[N+](=O)[O-])S1 (stereo not drawn),GI50,[1],24.3 µM (inactive)
same,GI50,[2],19.9 µM (inactive)
same,GI50,[39],19.2 µM (inactive)
same,GI50,[4],26.9 µM (inactive)
same,GI50,[5],22.9 µM (inactive)
same,GI50,[40],34.9 µM (inactive)
same,GI50,[6],27.6 µM (inactive)
same,GI50,[7],32.9 µM (inactive)
same,GI50,[8],36.6 µM (inactive)
same,GI50,[9],25.1 µM (inactive)
same,GI50,[10],34.8 µM (inactive)
same,GI50,[11],20.9 µM (inactive)
same,GI50,[12],35.1 µM (inactive)
same,GI50,[13],26.9 µM (inactive)
same,GI50,[14],34.1 µM (inactive)
same,GI50,[15],17.1 µM (inactive)
same,GI50,[41],29.1 µM (inactive)
same,GI50,[17],30.5 µM (inactive)
same,GI50,[42],34.1 µM (inactive)
same,GI50,[18],37 µM (inactive)
same,GI50,[43],23.4 µM (inactive)
same,GI50,[44],23.6 µM (inactive)
same,GI50,[20],28.4 µM (inactive)
same,GI50,[21],18.8 µM (inactive)
same,GI50,[22],17.9 µM (inactive)
same,GI50,[45],23.8 µM (inactive)
same,GI50,[23],31.1 µM (inactive)
same,GI50,[46],24.2 µM (inactive)
same,GI50,[24],20.5 µM (inactive)
same,GI50,[47],26.3 µM (inactive)
same,GI50,[25],36.8 µM (inactive)
same,GI50,[26],38.6 µM (inactive)
same,GI50,[28],19.4 µM (inactive)
same,GI50,[48],23.4 µM (inactive)
same,GI50,[49],14.5 µM (inactive)
same,GI50,[29],28.6 µM (inactive)
same,GI50,[50],15.6 µM (inactive)
same,GI50,[30],29.5 µM
same,GI50,[31],39.6 µM (inactive)
same,GI50,[51],25.2 µM (inactive)
same,GI50,[32],27.5 µM (inactive)
same,GI50,[52],25.9 µM (inactive)
same,GI50,[33],24.2 µM (inactive)
same,GI50,[34],23.3 µM (inactive)
same,GI50,[53],20.6 µM (inactive)
same,GI50,[35],48.1 µM (inactive)
same,GI50,[54],32.3 µM (inactive)
same,GI50,[36],26.1 µM (inactive)
same,GI50,[38],38 µM (inactive)
same,GI50,[55],31.6 µM (inactive)
O=C(CC/C(CC(=O)c1ccc(Cl)cc1)=N\O)Nc1cccc(Cl)c1,GI50,[1],> 100 µM (inactive)
same,GI50,[2],> 100 µM (inactive)
same,GI50,[39],> 100 µM (inactive)
same,GI50,[4],> 100 µM (inactive)
same,GI50,[5],> 100 µM (inactive)
same,GI50,[40],> 100 µM (inactive)
same,GI50,[6],> 100 µM (inactive)
same,GI50,[7],> 100 µM (inactive)
same,GI50,[8],> 100 µM (inactive)
same,GI50,[9],> 100 µM (inactive)
same,GI50,[10],> 100 µM (inactive)
same,GI50,[11],> 100 µM (inactive)
same,GI50,[12],> 100 µM (inactive)
same,GI50,[13],> 100 µM (inactive)
same,GI50,[14],> 100 µM (inactive)
same,GI50,[15],> 100 µM (inactive)
same,GI50,[41],> 100 µM (inactive)
same,GI50,[17],> 100 µM (inactive)
same,GI50,[42],> 100 µM (inactive)
same,GI50,[18],> 100 µM (inactive)
same,GI50,[43],> 100 µM (inactive)
same,GI50,[44],> 100 µM (inactive)
same,GI50,[20],> 100 µM (inactive)
same,GI50,[21],> 100 µM (inactive)
same,GI50,[22],> 100 µM (inactive)
same,GI50,[45],> 100 µM (inactive)
same,GI50,[23],> 100 µM (inactive)
same,GI50,[46],> 100 µM (inactive)
same,GI50,[24],> 100 µM (inactive)
same,GI50,[47],> 100 µM (inactive)
same,GI50,[25],> 100 µM (inactive)
same,GI50,[26],> 100 µM (inactive)
same,GI50,[28],> 100 µM (inactive)
same,GI50,[48],> 100 µM (inactive)
same,GI50,[49],80.7 µM (inactive)
same,GI50,[29],> 100 µM (inactive)
same,GI50,[50],> 100 µM (inactive)
same,GI50,[30],> 100 µM
same,GI50,[31],> 100 µM (inactive)
same,GI50,[51],> 100 µM (inactive)
same,GI50,[32],> 100 µM (inactive)
same,GI50,[52],> 100 µM (inactive)
same,GI50,[33],> 100 µM (inactive)
same,GI50,[34],> 100 µM (inactive)
same,GI50,[53],> 100 µM (inactive)
same,GI50,[35],> 100 µM (inactive)
same,GI50,[54],> 100 µM (inactive)
same,GI50,[36],> 100 µM (inactive)
same,GI50,[38],> 100 µM (inactive)
same,GI50,[55],> 100 µM (inactive)

# Source: ChEMBL document CHEMBL1201862, “PubChem BioAssay data set” (2004)
